# Data from patent US20250154135A1, “M-CHOLINE RECEPTOR AGONIST COMPOUND, PREPARATION METHOD THEREFOR AND USE THEREOF” (NANJING GRITPHARMA CO., LTD., priority 2022, published 2025).
# Values joined by “and” are separate entries in the source; they are usually repeats but may differ in a detail not shown here. Equal entries are not always repeated.
# What was measured:
# rabbit eyes = assay: Irritation to rabbit eyes (Test Example 3); assay type: in vivo; conditions: 0.88% compared with 3.50%
# Excerpt: Irritation: examined concurrently with the pupil diameter.
# The numerical results of pupil changes are shown in Tables 3-1 to 3-4, and the changes in eye irritation phenomenon are shown in FIGS. 13 and 14.
# rabbit pupil = assay: Rabbit pupil diameter change, pilocarpine p-toluate at different concentrations (Test Example 3); assay type: in vivo
# Method: Under the condition of normal saline, the onset time, strength of effect, duration of effect, and irritation of 1.25% pilocarpine hydrochloride and different concentrations (0.88%, 1.75%, 3.50%) of pilocarpine p-toluate were tested.
# Each rabbit was subjected to eye drop administration in the left eye (using a pipette), with an administration volume of 100 μL.
# Number of animals: 6 rabbits per compound.
# Administration schedule: single administration.
# • the pupil diameter of the left eye of the rabbits was measured at time points of −0.5 h (i.e., half an hour before administration), 5 min, 10 min, 15 min, 0.5 h, 3 h and 4 h relative to administration, with the measurement performed 3 times for each rabbit at each time point.
smiles,measurement,setting,value
"CC[C@@H]1C(=O)OC[C@@H]1Cc1cncn1C [JQ-6, Pilocarpine p-toluate]",irritation to rabbit eyes,rabbit eyes,significantly lower than that caused by the 3.50% pilocarpine p-toluate
same,strength of effect at each time point compared to 1.25% pilocarpine hydrochloride,rabbit pupil; 0.88% (half molar concentration of pilocarpine),demonstrated increased strength of effect at each time point
same,Percentage change in pupil diameter,"rabbit pupil; 0.88%, 5 min, average of 6 rabbits",−10.07%
same,Percentage change in pupil diameter,"rabbit pupil; 0.88%, 5 min, individual rabbit",−4.80% and −6.70% and −13.54% and −9.41% and −12.03% and −13.93%
same,Percentage change in pupil diameter,"rabbit pupil; 0.88%, 10 min, average of 6 rabbits",−36.21%
same,Percentage change in pupil diameter,"rabbit pupil; 0.88%, 10 min, individual rabbit",−33.75% and −34.62% and −30.54% and −48.90% and −41.07% and −28.39%
same,Percentage change in pupil diameter,"rabbit pupil; 0.88%, 15 min, average of 6 rabbits",−40.86%
same,Percentage change in pupil diameter,"rabbit pupil; 0.88%, 15 min, individual rabbit",−43.40% and −41.17% and −36.73% and −43.68% and −50.07% and −30.13%
same,Percentage change in pupil diameter,"rabbit pupil; 0.88%, 0.5 h, average of 6 rabbits",−37.44%
same,Percentage change in pupil diameter,"rabbit pupil; 0.88%, 0.5 h, individual rabbit",−36.60% and −41.12% and −36.25% and −37.28% and −44.65% and −28.71%
same,Percentage change in pupil diameter,"rabbit pupil; 0.88%, 3 h, average of 6 rabbits",−10.34%
same,Percentage change in pupil diameter,"rabbit pupil; 0.88%, 3 h, individual rabbit",−9.65% and −14.66% and −12.43% and −7.91% and −14.57% and −2.85%
same,Percentage change in pupil diameter,"rabbit pupil; 0.88%, 4 h, average of 6 rabbits",0.70%
same,Percentage change in pupil diameter,"rabbit pupil; 0.88%, 4 h, individual rabbit",3.67% and −2.65% and 4.83% and −0.54% and −1.39% and 0.26%
same,strength of effect at each time point compared to 1.25% pilocarpine hydrochloride,rabbit pupil; 1.75% (same molar concentration of pilocarpine),the increase in strength of effect at each time point was more significant
same,Percentage change in pupil diameter,"rabbit pupil; 1.75%, 5 min, individual rabbit",−18.36% and −12.49% and −14.04%
same,Percentage change in pupil diameter,"rabbit pupil; 1.75%, 10 min, individual rabbit",−44.23% and −37.19% and −44.10%
same,Percentage change in pupil diameter,"rabbit pupil; 1.75%, 15 min, individual rabbit",−49.50% and −43.41% and −45.41%
same,Percentage change in pupil diameter,"rabbit pupil; 1.75%, 0.5 h, individual rabbit",−47.81% and −42.82% and −44.78%
same,Percentage change in pupil diameter,"rabbit pupil; 1.75%, 3 h, individual rabbit",−12.34% and −6.91%
same,Percentage change in pupil diameter,"rabbit pupil; 1.75%, 4 h, individual rabbit",−0.45% and −0.05%
same,strength of effect at each time point compared to 1.25% pilocarpine hydrochloride,rabbit pupil; 3.50% (2 times molar concentration of pilocarpine),significantly enhanced
